Experiment [1] deals with H-ras. The experiment in a line: Western blot of H-ras prenylation in SW480 cells. The experiment is classed as cell-based, human. To be noted: 48 hours. The method, then:
FIG. 17A is an image of a Western blot depicting inhibition by FTI-277 of K-ras prenylation in human SW480 colon carcinoma cells. SW480 cells were treated with the indicated concentrations of FTI-277 (μM) for 48 hours. Samples were harvested and cell lysates were analyzed by Western blotting using either a H-ras monoclonal antibody (top) or a K-ras monoclonal antibody (bottom). Arrows indicate unfarnesylated ras bands.

The test system of experiment [2] is SW480 colon carcinoma cells. The experiment in a line: Clonogenic radiation survival of SW480 cells. The experiment is classed as cell-based, human. To be noted: 30 μM FTI-277, 24 hours before irradiation. The method, then:
SW480 cells were treated for 24 hours with 30 μM FTI-277 before irradiation. Clonogenic survival was subsequently assessed in the cells. Treatment with the inhibitor was maintained for 24 hours after irradiation, at which time medium was replaced with inhibitor free medium. Control cells were treated as above with diluent. Open squares: control cells; closed squares: FTI-277 treated cells.
FIG. 18B is a graph depicting a reduction in the radiation survival of SW480 cells following inhibition of K-ras prenylation by FTI-277 and GGTI-298. SW480 cells were treated for 24 hours with 5 μM FTI-277 and 8 μM GGTI-298 before irradiation and assessment of clonogenic survival. Inhibitor treatment was maintained for 24 hours after irradiation, at which time the medium was replaced with inhibitor free medium. Control cells were treated as above with an equal amount of drug-free diluent. Open squares: control cells; closed squares: FTI and GGTI treated cells.

Experiment [3] deals with 5R, 3.7, MR4 and REF cells. As to the kind of experiment: Radiation survival determination (clonogenic survival). The experiment is classed as cell-based, rat. To be noted: for plating efficiency: unaffected by FTI-277. The method, then:
FIG. 14A comprises a series of graphs depicting clonogenic survival of 5R, 3.7, MR4, and REF cells following treatment with FTI-277 and irradiation of the cells. Immediately prior to irradiation, FTI-277 was added at concentrations of 2.5 μM (3.7 cells) or 5 μM (5R, MR4 and REF cells). The inhibitor was diluted out of the culture medium 24 hours later resulting in a final concentration of inhibitor of 1 μM (3.7 cells) or 2 μM (5R, MR4 and REF). The plating efficiencies of MR4 and […] were unaffected by treatment with FTI-277, being 100% and 32-38%, respectively. FTI-277 reduced the plating efficiency of 3.7 and REF cells by 50% of untreated control values which were 75% and 5%, respectively. […] The data points shown represent the mean of the results obtained from at least three separate dishes of cells. The open symbols indicate the results obtained in untreated cells and the closed symbols are those results obtained in cells treated with FTI-277. In the panel labeled 3.7, the open triangles are the results obtained in untreated MR4 cells.
Cells obtained from log growth cultures were plated in 60-mm dishes and allowed to attach for 4 hours before addition of FTI-277 to the medium. The plating medium was then removed and fresh medium containing FTI-277 in DMSO or DMSO alone (for control dishes) was added immediately before irradiation. Cells were irradiated with a Mark I cesium irradiator (J. S. Shepherd, San Fernando, Calif.) at a dose rate of 1.7 Gray per minute. Colonies of cells were stained and counted 10-14 days after irradiation (McKenna et al., 1990, supra). The surviving fraction of cells at a given dose is defined as: [formula]
Each point on the survival curves represents the mean surviving fraction from at least three dishes of cells.

For experiment [4], the system named is H-ras^v12 CVLL. As to the kind of experiment: Western blot of prenylation of chimeric H-ras in REF-GG cells. To be noted: up to 10 μM. The experiment is classed as cell-based, rat. The text has this:
The oncogene-transfected cells used in this study were all derived from early passage rat embryo fibroblast (REF) by transfection with the pEJ plasmid containing the H-ras gene isolated from the EJ bladder carcinoma. This vector was introduced by calcium phosphate DNA transfer into primary REF, either alone or together with the pMC29 vector containing v-myc. One clone containing both the introduced H-ras gene and the v-myc genes is 3.7 (McKenna et al., 1990, Cancer Res. 50:97-102). 4R and 5R cells were obtained as rare transformants after transfection with the pEJ plasmid alone (McKenna et al., 1993, supra). MR4 cells were immortalized by transfection with an expression vector comprising v-myc linked to a neomycin-resistant selectable marker (McKenna et al., 1991, Radiat. Res. 125:283-287). REF-GG cells were obtained by transforming REF cells with a chimeric H-ras(v12) in which the CAAX motif is CVLL. All cell lines were mycoplasma free.
Cells were lysed in culture dishes with 1 x reducing Laemmli sample buffer. Samples were boiled, sheared and clarified by centrifugation at 14,000 rpm in a microfuge before storage at −20° C. Samples containing equal amounts of protein were separated on a 12% SDS polyacrylamide gel and electrophoretically transferred to nitrocellulose membranes. […]

For experiment [5], the system named is H-ras^v12. The experiment in a line: Western blot of H-ras farnesylation in T24 bladder carcinoma cells. The experiment is classed as cell-based, human. To be noted: 5 μM. The method, then:
FIG. 16A is an image of a Western blot depicting changes in farnesylation of H-ras^v12 following treatment of human bladder carcinoma cells with FTI-277. T24 bladder carcinoma cells were treated with 5 μM of FTI-277 for the times indicated (hours). Samples were harvested and cell lysates were prepared for Western blot analysis using anti-H-ras antibody. Untreated control samples harvested at 0 and 30 hours are shown for comparison.
Cells were lysed in culture dishes with 1 x reducing Laemmli sample buffer. Samples were boiled, sheared and clarified by centrifugation at 14,000 rpm in a microfuge before storage at −20° C. Samples containing equal amounts of protein were separated on a 12% SDS polyacrylamide gel and electrophoretically transferred to nitrocellulose membranes. Membranes were blocked for 1-2 hours in PBS containing 0.1% Tween-20 and 5% powdered milk before antibody addition. Membranes were probed with monoclonal pan-ras antibody AB-4 (Oncogene Science, Uniondale, N.Y.) at a concentration of 0.5 μg/ml, or with monoclonal H-ras antibody LA069 (1:5000 dilution; Quality Biotech, Camden, N.J.). Detection of protein was accomplished using the ECL chemiluminescence kit (Amersham, Arlington Heights, Ill.). Images were digitized using an Arcus II scanner, and figures were assembled using Adobe Photoshop 3.0.

Experiment [6] deals with mouse prostate tumor cells transformed with H-ras^v12 and myc. As to the kind of experiment: Radiation induced apoptosis of mouse prostate tumor cells. The experiment is classed as cell-based. To be noted: doses which inhibited ras farnesylation, 10 Gray. The method, then: FIG. 13B is a graph depicting the effects of the inhibitor, FTI-277, at the concentrations indicated (μM) on radiation induced apoptosis of prostate tumor cells. Cells were treated with FTI-277 for 24 hours before irradiation with 10 Gray. Apoptosis was quantitated 24 hours after irradiation by scoring for changes in nuclear morphology following staining of the cells with propidium iodide. Panel A depicts prostate tumor cells cultured from a primary tumor. Panel B depicts prostate tumor cells cultured from an isolated metastasis derived from the tumor.
3×10^3 cells/well in 24-well plates were allowed to attach for 12 hours and were then treated with medium containing FTI-277 in DMSO or an equivalent volume of DMSO without inhibitor. Twenty four hours after irradiation with 10 Gray using the irradiator described above, both adherent and non-adherent cells were harvested. Cells were stained with propidium iodide (Muschel et al., 1995, Cancer Res. 55:995-998). A minimum of three independent fields of 100 cells were counted for each sample. Scoring of samples was performed in a double blind manner.

Each structure is given as a SMILES string.

`COC(=O)[C@H](CCSC)NC(=O)c1ccc(NC[C@@H](N)CS)cc1-c1ccccc1` [FTI-277]: the “lowest concentration with altered migration of H-ras” value in experiment [1] came to 2.5 µM. Besides, the radiation survival result in experiment [2] was “reduction in radiation survival”; in experiment [3] (MR4 or REF cells, 5 μM) it was “no effect on radiation survival”. Besides, the “radioresistance (survival curves)” value in experiment [3] (3.7 (2.5 μM) and 5R (5 μM) cells, 24 hours after irradiation) is recorded as “reduced to a level of survival which was similar to that seen in MR4 cells”. In addition, the “reduction of plating efficiency, of untreated control values” in experiment [3] (3.7 and REF cells) was found to be 50%. The plating efficiency in experiment [3] (5R cells) is on record as 32-38%; in experiment [3] (MR4 cells), 100%. The “mobility of H-ras-CVLL” value in experiment [4] is “no change in the mobility of H-ras-CVLL”. Besides, the “time after which unfarnesylated H-ras was detectable” value in experiment [5] worked out at 5 h. Further, the “time required to achieve 50% of ras in the unfarnesylated form” value in experiment [5] came out at 24 h. Also, in experiment [6], the radiation-induced apoptosis entry is reported as “significant increase in apoptosis”.

Values taken from US20020034725A1, “SENSITIZATION OF CELLS TO RADIATION AND AND CHEMOTHERAPY” (priority 1996, published 2002).
